Results reported in paper PMC3197222 (Journal of the American Chemical Society, 2009).
Entries after “also recorded” stand apart in the source; their conditions may differ.

Tests used:
DNase [1] = settings: selected with Lys18-wrapped phage library; ref [15]; cited from earlier work
DNase [2] = test: SPR imaging of phage-displayed DNase-1 adsorption; assay type: binding; settings: phage-displayed DNase-1, 2.5 nM phage wrapped in 2.5 µM polymer 1 in PBS (Figure S2)
DNase [3] = test: Phage-based ELISA of phage-displayed DNase ligands; assay type: binding; settings: for binding to DNase, unwrapped phage-displayed ligand: absence of 1-ext wrapper, versus M13-KO7 phage; for binding affinity and specificity for DNase, phage-displayed: phage-based ELISA (Figure 5); for binding to DNase, wrapped phage-displayed ligand: wrapped with 1-ext (2.5 µM), versus M13-KO7 phage control

Sequence | DNase ligand (previous report) (DNase [1]) | SPR imaging binding to DNase (DNase [2]) | binding to DNase, unwrapped phage-displayed ligand (DNase [3]) | binding affinity and specificity for DNase, phage-displayed (DNase [3]) | binding to DNase, wrapped phage-displayed ligand (DNase [3])
EEWYCLRQGTFETLYCFW [DNase-L] | DNase ligand |  |  |  | 
RWCLSELSG [DNase-1] |  | binds well to the target DNase | stronger binding to DNase than the negative control M13-KO7 phage | moderate to high affinity binding and specificity for DNase | bound with higher affinity to DNase than the M13-KO7 phage control
EEWYCLRQGTFETLFF [DNase-2] |  |  | stronger binding to DNase than the negative control M13-KO7 phage | moderate to high affinity binding and specificity for DNase | bound with higher affinity to DNase than the M13-KO7 phage control, with DNase-2 having much greater apparent affinity; also recorded: strong binding to DNase was retained
